From patent US12728119B2, “Pharmaceutical composition for preventing or treating cancer comprising 3-ketoacyl CoA thiolase inhibitor and carnitine acylcarnitine carrier inhibitor” (NATIONAL CANCER CENTER, priority 2020, dated 2026)

Assays:
Type in all cases: cell-based
[1] = test system: A375 melanoma cell line; experiment: SRB analysis 3; settings: 48 hours
Method: (§1) Through SRB analysis (n=3), the effect of triple combination treatment of a CAC inhibitor (KN510: omeprazole), ACAA inhibitor (KN713: trimetazidine) and other anticancer drug on cell growth in the cancer cells was analyzed. (see Table 11).
(§2) The SRB assay was performed as follows: each cell line (100 μl) was seeded into 96-well microtiter plates at densities ranging from 5,000 to 40,000 cells/well depending on the doubling time of each cell line. After 24 hours, drug (100 μl per well) was added to each well and the culture was incubated at 37° C. for 48 hours. Cells were then fixed in 50% TCA (50 μl per well) and plates were incubated at 4° C. for a minimum of 1 hour or a maximum of 3 hours. After that, the liquid was removed from the plate, then rinsed 5 times with water and dried for approximately 12-24 hours at room temperature (RT). After the fixed cells were stained with 0.4% SRB (100 μl per well) for 10 minutes at room temperature, the plates were washed 3 times with 1% glacial acetic acid and dried at room temperature for about 12-24 hours. SRB staining was dissolved in 10 mM Trizma base and absorbance was read at 515 nm. The effect of the drug was expressed as GI50 (50% growth inhibition), TGI (total growth inhibition) or LC50 (lethal concentration). GI50 is the maximum concentration at the moment of 50% inhibition of cell proliferation and IC50 is the concentration of the drug that inhibits the enzyme activity in vitro by 50% in this study.

[2] = test system: A549 non-small cell lung cancer (NSCLC) cell line; experiment: SRB analysis 3; settings: 48 hours
Method: as §1, §2

[3] = test system: ACHN renal cancer cell line; experiment: SRB analysis 3; settings: 48 hours
Method: as §1, §2

[4] = test system: AGS gastric cancer cell line; experiment: SRB analysis 3; settings: 48 hours
Method: as §1, §2

[5] = test system: AsPC-1 pancreatic cancer (PDAC) cell line; experiment: SRB analysis 3; settings: 48 hours
Method: as §1, §2

[6] = test system: COLO-205 colon cancer cell line; experiment: SRB analysis 3; settings: 48 hours
Method: as §1, §2

[7] = test system: Caki-1 renal cancer cell line; experiment: SRB analysis 3; settings: 48 hours
Method: as §1, §2

[8] = test system: DU145 prostate cancer cell line; experiment: SRB analysis 3; settings: 48 hours
Method: as §1, §2

[9] = test system: H1975 non-small cell lung cancer (NSCLC) cell line; experiment: SRB analysis 3; settings: 48 hours
Method: as §1, §2

[10] = test system: HCT-116 colon cancer cell line; experiment: SRB analysis 3; settings: 48 hours
Method: as §1, §2

[11] = test system: Huh-7 liver cancer cell line; experiment: SRB analysis 3; settings: 48 hours
Method: as §1, §2

[12] = test system: MCF7 breast cancer cell line; experiment: SRB analysis 3; settings: 48 hours
Method: as §1, §2

[13] = test system: MDA-MB-231 breast cancer cell line; experiment: SRB analysis 3; settings: 48 hours
Method: as §1, §2

[14] = test system: MIA PaCa-2 pancreatic cancer (PDAC) cell line; experiment: SRB analysis 3; settings: 48 hours
Method: as §1, §2

[15] = test system: MKN45 gastric cancer cell line; experiment: SRB analysis 3; settings: 48 hours
Method: as §1, §2

[16] = test system: OVCAR-8 ovarian cancer cell line; experiment: SRB analysis 3; settings: 48 hours
Method: as §1, §2

[17] = test system: PC-3 prostate cancer cell line; experiment: SRB analysis 3; settings: 48 hours
Method: as §1, §2

[18] = test system: SK-OV-3 ovarian cancer cell line; experiment: SRB analysis 3; settings: 48 hours
Method: as §1, §2

[19] = test system: SK-hep-1 liver cancer cell line; experiment: SRB analysis 3; settings: 48 hours
Method: as §1, §2

[20] = test system: UACC62 melanoma cell line; experiment: SRB analysis 3; settings: 48 hours
Method: as §1, §2

[21] = test system: T87G glioblastoma (GBM) cell line; experiment: SRB analysis 3; settings: 48 hours
Method: as §2, with “Through SRB analysis (n=3), the effect of triple combination treatment of a CAC inhibitor ([…] inhibitor (KN713: trimetazidine) and other anticancer drug on cell growth in the cancer cells was analyzed. (see Table 11). The” for “The”, “nm.” for “nm. The effect of the drug was expressed as GI50 (50% growth inhibition), TGI (total growth inhibition) or LC50 (lethal concentration). GI50 is the maximum concentration at the moment of 50% inhibition of cell proliferation and IC50 is the concentration of the drug that inhibits the enzyme activity in vitro by 50% in this study.”

[22] = test system: U87MG glioblastoma (GBM) cell line; experiment: SRB analysis 3; settings: 48 hours
Method: as §2, with “Through SRB analysis (n=3), the effect of triple combination treatment of a CAC inhibitor ([…] inhibitor (KN713: trimetazidine) and other anticancer drug on cell growth in the cancer cells was analyzed. (see Table 11). The” for “The”, “nm.” for “nm. The effect of the drug was expressed as GI50 (50% growth inhibition), TGI (total growth inhibition) or LC50 (lethal concentration). GI50 is the maximum concentration at the moment of 50% inhibition of cell proliferation and IC50 is the concentration of the drug that inhibits the enzyme activity in vitro by 50% in this study.”

[23] = test system: cancer cells; experiment: SRB analysis 3, triple combination, summary over cancer panels
Method: as §1, §2

[24] = Breast Cancer, BT-549, MDA MB 231
[25] = Ovarian Cancer, SK-OV-3, OVCAR-3
[26] = Renal cell carcinoma, ACHN, CAKI-1

CCc1c2c(nc3ccc(OC(=O)N4CCC(N5CCCCC5)CC4)cc13)-c1cc3c(c(=O)n1C2)COC(=O)[C@]3(O)CC [Irinotecan]
cell growth (Control = 100) ([1]; Irinotecan 2.5 μM): −23.32
cell growth (Control = 100) ([2]; Irinotecan 2.5 μM): 17.6
cell growth (Control = 100) ([3]; Irinotecan 2.5 μM): −43.8973
cell growth (Control = 100) ([4]; Irinotecan 2.5 μM): 13.58
cell growth (Control = 100) ([5]; Irinotecan 2.5 μM): 45.75
cell growth (Control = 100) ([6]; Irinotecan 2.5 μM): 10.02
cell growth (Control = 100) ([7]; Irinotecan 2.5 μM): 22.65
cell growth (Control = 100) ([8]; Irinotecan 5 μM): 28.6
cell growth (Control = 100) ([9]; Irinotecan 2.5 μM): 25.71
cell growth (Control = 100) ([10]; Irinotecan 2.5 μM): −0.3443
cell growth (Control = 100) ([11]; Irinotecan 2.5 μM): 15.47
cell growth (Control = 100) ([12]; Irinotecan 2.5 μM): 7.427
cell growth (Control = 100) ([13]; Irinotecan 2.5 μM): 78.25
cell growth (Control = 100) ([14]; Irinotecan 2.5 μM): 2.59
cell growth (Control = 100) ([15]; MKN45, Irinotecan 2.5 μM): 40.94
cell growth (Control = 100) ([16]; Irinotecan 2.5 μM): 36.34
cell growth (Control = 100) ([17]; Irinotecan 5 μM): 37.7
cell growth (Control = 100) ([18]; Irinotecan 2.5 μM): 13.57
cell growth (Control = 100) ([19]; Irinotecan 2.5 μM): −15.5188
cell growth (Control = 100) ([20]; Irinotecan 2.5 μM): −13.35
cell growth (Control = 100) ([21]; Irinotecan 2.5 μM): 71.53
cell growth (Control = 100) ([22]; Irinotecan 2.5 μM): 6.31
Positive/Negative (triple combination of KN510, KN713 and the listed anticancer drug) [23, 24]: Positive
Positive/Negative (triple combination of KN510, KN713 and the listed anticancer drug) ([23]; Colon Cancer, HT-29, COLO-205): negative
Positive/Negative (triple combination of KN510, KN713 and the listed anticancer drug) ([23]; GBM, U87MG, T87G): Positive
Positive/Negative (triple combination of KN510, KN713 and the listed anticancer drug) ([23]; Liver Cancer, SNU-449, Huh-7): negative
Positive/Negative (triple combination of KN510, KN713 and the listed anticancer drug) ([23]; NSCLC, A549, H522): Positive
Positive/Negative (triple combination of KN510, KN713 and the listed anticancer drug) [23, 25]: negative
Positive/Negative (triple combination of KN510, KN713 and the listed anticancer drug) ([23]; PDAC, MIA PaCa-2, PANC-1): Positive
Positive/Negative (triple combination of KN510, KN713 and the listed anticancer drug) ([23]; Prostate Cancer, PC-3, DU-145): Positive
Positive/Negative (triple combination of KN510, KN713 and the listed anticancer drug) [23, 26]: negative
Positive/Negative (triple combination of KN510, KN713 and the listed anticancer drug) ([23]; Stomach Cancer, MKN-28, AGS): Positive
Positive/Negative (triple combination of KN510, KN713 and the listed anticancer drug) ([23]; melanoma, UACC62, A375): Positive

CC(=O)O[C@H]1C(=O)[C@@]2(C)[C@H]([C@H](OC(=O)c3ccccc3)[C@]3(O)C[C@H](OC(=O)[C@H](O)[C@@H](NC(=O)c4ccccc4)c4ccccc4)C(C)=C1C3(C)C)[C@]1(OC(C)=O)CO[C@@H]1C[C@@H]2O [Paclitaxel]
cell growth (Control = 100) ([1]; Paclitaxel 10 nM): 40.20
cell growth (Control = 100) ([2]; Paclitaxel 10 nM): 17.6
cell growth (Control = 100) ([3]; Paclitaxel 10 nM): 105.2409
cell growth (Control = 100) ([4]; Paclitaxel 20 nM): 20.3903
cell growth (Control = 100) ([5]; Paclitaxel 10 nM): 41.94
cell growth (Control = 100) ([6]; Paclitaxel 10 nM): −8.628
cell growth (Control = 100) ([7]; Paclitaxel 10 nM): 128.124
cell growth (Control = 100) ([8]; Paclitaxel 10 nM): 46.381
cell growth (Control = 100) ([9]; Paclitaxel 10 nM): 45.06
cell growth (Control = 100) ([10]; Paclitaxel 10 nM): 15.07
cell growth (Control = 100) ([11]; Paclitaxel 10 μM): 63.01
cell growth (Control = 100) ([12]; Paclitaxel 10 μM): 17.28
cell growth (Control = 100) ([13]; Paclitaxel 10 μM): 70.48
cell growth (Control = 100) ([14]; Paclitaxel 10 nM): 16.4
cell growth (Control = 100) ([15]; MKN-45, Paclitaxel 20 nM): 8.846
cell growth (Control = 100) ([16]; Paclitaxel 10 μM): 76.61
cell growth (Control = 100) ([17]; Paclitaxel 10 nM): 47.85
cell growth (Control = 100) ([18]; Paclitaxel 10 μM): 62.41
cell growth (Control = 100) ([19]; Paclitaxel 10 μM): 78.76
cell growth (Control = 100) ([20]; Paclitaxel 10 nM): 65.90
cell growth (Control = 100) ([21]; Paclitaxel 10 nM): 56.70
cell growth (Control = 100) ([22]; Paclitaxel 10 nM): 28.87
Positive/Negative (triple combination of KN510, KN713 and the listed anticancer drug) [23, 24]: Positive
Positive/Negative (triple combination of KN510, KN713 and the listed anticancer drug) ([23]; Colon Cancer, HT-29, COLO-205): Positive
Positive/Negative (triple combination of KN510, KN713 and the listed anticancer drug) ([23]; GBM, U87MG, T87G): Positive
Positive/Negative (triple combination of KN510, KN713 and the listed anticancer drug) ([23]; Liver Cancer, SNU-449, Huh-7): Positive
Positive/Negative (triple combination of KN510, KN713 and the listed anticancer drug) ([23]; NSCLC, A549, H522): Positive
Positive/Negative (triple combination of KN510, KN713 and the listed anticancer drug) [23, 25]: Positive
Positive/Negative (triple combination of KN510, KN713 and the listed anticancer drug) ([23]; PDAC, MIA PaCa-2, PANC-1): Positive
Positive/Negative (triple combination of KN510, KN713 and the listed anticancer drug) ([23]; Prostate Cancer, PC-3, DU-145): Positive
Positive/Negative (triple combination of KN510, KN713 and the listed anticancer drug) [23, 26]: negative
Positive/Negative (triple combination of KN510, KN713 and the listed anticancer drug) ([23]; Stomach Cancer, MKN-28, AGS): Positive
Positive/Negative (triple combination of KN510, KN713 and the listed anticancer drug) ([23]; melanoma, UACC62, A375): Positive
